Data as given in article PMC9405973, “Altered Conformational Landscape upon Sensing Guanine Nucleotides in a Disease Mutant of Elongation Factor-like 1 (EFL1) GTPase” (Biomolecules, 2022).
Values joined by “and” are separate entries in the source; they are usually repeats but may differ in a detail not shown here. Identical values can stand only once.

What was measured:
Efl1 R1086Q = molecular target: T1, Efl1 R1086Q (Saccharomyces cerevisiae, UniProt P53893, R1086Q); assay: Isothermal titration calorimetry (ITC): binding of guanine nucleotides or Sdo1 to Efl1 R1086Q; details: for Kd / -TΔSb / ΔGb / ΔHb / ΔCpb: guanine nucleotide; for ΔCpb: from ΔHb at 25–35 °C
T1 construct: made in house; host or cells: Saccharomyces cerevisiae
Method: All calorimetric measurements were carried out using MicroCal^TM iTC200 System (GE Healthcare, Northampton, MA, USA) in a temperature range of 25–35 °C. Experiments were performed in a buffer consisting of 50 mM Tris-HCl (pH 8.0), 150 mM NaCl, 100 µM DTT, and 5% glycerol. In the titrations with Mg^2+-bound nucleotides, both the ligand and protein solutions contained 5 mM MgCl2. In the case of titrations with Mg^2+-free nucleotide, both the ligand and protein solutions were supplemented with 2 mM EDTA to sequester any residual trace of metal ions in solution. Protein samples and ligands were prepared in the exact same buffer prior to each titration. Protein concentration in the cell comprised 30–50 µM GTPase, while the ligand concentration in the syringe was 2–3 mM for GTP, MgGTP, GDP, and MgGDP. To ensure measuring the interaction of the complex Efl1 R1086Q•Sdo1 with the nucleotide, an eight-fold concentration excess of Sdo1 was used compared with that of the enzyme. […] The titration schedule consisted of 15–20 consecutive injections of the ligand with 5 min intervals between injections and a stirring rate of 700 rpm. The dilution heat of the ligand was obtained by adding the ligand to a buffer solution under identical conditions and with the same injection schedule used for the protein sample. All samples were degassed for 10 min prior to the experiment.
The binding isotherms obtained for the isolated GTPase in the presence of Mg(II) were analysed using a ternary model in which the protein can bind to the free nucleotide (G(D)TP) or that bound to one magnesium ion (MgG(D)TP); additionally, GTP may also exist in the form of Mg2GTP, which is not recognised by the protein. The derivation of this coupled-equilibria model can be reviewed in [6, 31]. The binding constant (Kb), the enthalpy change (∆Hb), and the stoichiometry (n) were obtained with the non-linear routines implemented in Origin 5.0 (OriginLab, Co., Northampton, MA, USA) using a one-binding-site model as described in [32, 33]. The heterotropic cooperativity for the binding of guanine nucleotides and Sdo1 to Efl1 R1086Q were calculated as previously described in [6, 32]. The cooperative effects of Mg(II) on the binding of guanine nucleotides to Efl1 R1086Q alone and bound to Sdo1 were calculated as follows:κ = KE-MG/KE-G κ = KES-MG/KES-G Δh = ΔHE-MG − ΔHE-G Δh = ΔHES-MG − ΔHES-G where subscripts E-MG and E-G stand for the association of the metal-bound and metal-free guanine nucleotide with mutant Efl1, respectively. Corresponding expressions applied to the heterotropic cooperativity of the binding of nucleotides to the preformed complex, Efl1•Sdo1 (ES).
The impact of Sdo1 on the binding of Efl1 R1086Q to guanine nucleotides in the presence of magnesium ions is contained in KES-MG and ΔHES-MG relative to the KE-S and ΔHE-S values; analogous ratios report the effects in the absence of Mg(II):κ = KES-MG/KE-S κ = KES-G/KE-G Δh = ΔHES-MG − ΔHE-S Δh = ΔHES-G − ΔHE-G
The corresponding cooperative entropy change was calculated as:TΔs = Δh − Δg = Δh + RTlnκ
The detailed methodology and equations to compute the changes in the accessible surface area (∆ASA) of the GTPase upon binding to nucleotides and the ∆S energetic-based parameters are reported in [6]. Briefly, the water-accessible areas (ASAs) were computed using programme NACCESS, while the changes in accessible surface area (ΔASA) upon the formation of each GTPase–nucleotide complex were estimated considering the difference between the complex and the sum of the free interacting partners. The calculated polar (ΔASAp) and apolar (ΔASAap) area changes were subsequently used to estimate the free molecular partners. […]

wild-type Efl1•Sdo1 = system: wild-type Efl1•Sdo1; set-up: method as in PMID 30780079; details: −Mg^2+, cited from earlier work
[1] = Effect of Mg^2+, Efl1 R1086Q − Sdo1, 25 °C
[2] = Effect of Mg^2+, Efl1 R1086Q − Sdo1, 30 °C
[3] = Effect of Mg^2+, Efl1 R1086Q − Sdo1, 35 °C
[4] = Effect of Sdo1, Efl1 R1086Q + Mg^2+, 25 °C
[5] = Effect of Sdo1, Efl1 R1086Q + Mg^2+, 30 °C
[6] = Effect of Sdo1, Efl1 R1086Q + Mg^2+, 35 °C
[7] = Effect of Sdo1, Efl1 R1086Q − Mg^2+, 25 °C
[8] = Effect of Sdo1, Efl1 R1086Q − Mg^2+, 30 °C
[9] = Effect of Sdo1, Efl1 R1086Q − Mg^2+, 35 °C

T1 sequence (P53893 whole entry R1086Q): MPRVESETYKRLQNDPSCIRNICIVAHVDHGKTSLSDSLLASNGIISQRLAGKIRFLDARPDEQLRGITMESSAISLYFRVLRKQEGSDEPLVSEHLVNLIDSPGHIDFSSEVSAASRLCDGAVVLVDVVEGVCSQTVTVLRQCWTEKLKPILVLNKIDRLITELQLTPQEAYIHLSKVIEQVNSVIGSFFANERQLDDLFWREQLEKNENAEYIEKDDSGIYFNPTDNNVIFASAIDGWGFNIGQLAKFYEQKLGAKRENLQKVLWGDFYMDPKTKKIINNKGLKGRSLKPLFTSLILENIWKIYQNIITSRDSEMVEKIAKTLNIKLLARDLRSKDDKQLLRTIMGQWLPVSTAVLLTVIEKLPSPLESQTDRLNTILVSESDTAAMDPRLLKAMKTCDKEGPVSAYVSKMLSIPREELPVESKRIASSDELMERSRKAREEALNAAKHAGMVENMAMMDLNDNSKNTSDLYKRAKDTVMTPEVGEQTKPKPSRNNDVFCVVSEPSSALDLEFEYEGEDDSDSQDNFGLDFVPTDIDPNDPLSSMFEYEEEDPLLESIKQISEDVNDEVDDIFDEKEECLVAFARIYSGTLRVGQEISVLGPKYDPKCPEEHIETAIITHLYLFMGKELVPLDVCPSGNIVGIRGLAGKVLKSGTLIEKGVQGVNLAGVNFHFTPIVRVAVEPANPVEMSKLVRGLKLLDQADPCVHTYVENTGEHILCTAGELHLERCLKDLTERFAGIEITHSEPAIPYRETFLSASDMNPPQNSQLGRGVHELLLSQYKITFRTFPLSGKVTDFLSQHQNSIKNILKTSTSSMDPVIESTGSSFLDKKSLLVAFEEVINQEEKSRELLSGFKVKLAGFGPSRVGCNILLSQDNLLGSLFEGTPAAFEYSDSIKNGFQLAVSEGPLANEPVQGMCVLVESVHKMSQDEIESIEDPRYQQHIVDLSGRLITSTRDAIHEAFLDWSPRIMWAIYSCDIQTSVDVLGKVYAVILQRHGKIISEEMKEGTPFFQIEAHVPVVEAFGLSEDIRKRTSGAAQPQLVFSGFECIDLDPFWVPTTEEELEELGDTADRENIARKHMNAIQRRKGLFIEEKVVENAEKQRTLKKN

SMILES: Nc1nc2c(ncn2[C@@H]2O[C@H](COP(=O)(O)OP(=O)(O)O)[C@@H](O)[C@H]2O)c(=O)[nH]1 [GDP]
- increase in binding enthalpy as temperature increased (Efl1 R1086Q; 25 °C to 35 °C): ~ 6 kcal mol^−1
- Nconfres (number of residues changing conformation, absolute value) (Efl1 R1086Q; +Mg^2+, 30 °C): 21
- Nconfrotb (number of routable bonds changing conformation, absolute value) (Efl1 R1086Q; +Mg^2+, 30 °C): 30
- ΔCpconf (Efl1 R1086Q; +Mg^2+, 30 °C): −222 cal mol^−1 K^−1
- ΔSb (Efl1 R1086Q; +Mg^2+, 30 °C): 7 cal mol^−1 K^−1
- ΔSconf (Efl1 R1086Q; +Mg^2+, 30 °C): −49 cal mol^−1 K^−1
- ΔSsolv (Efl1 R1086Q; +Mg^2+, 30 °C): 65 cal mol^−1 K^−1
- −ΔASAconf (Efl1 R1086Q; +Mg^2+, 30 °C): 996 Å^2
- -TΔs (Efl1 R1086Q; [1]): -2.3 kcal/mol
- Δg (Efl1 R1086Q; [1]): 1.3 kcal/mol
- Δh (Efl1 R1086Q; [1]): 3.5 kcal/mol
- κ (heterotropic cooperativity) (Efl1 R1086Q; [1]): 0.1
- -TΔs (Efl1 R1086Q; [2]): -2.4 kcal/mol
- Δg (Efl1 R1086Q; [2]): 1.2 kcal/mol
- Δh (Efl1 R1086Q; [2]): 3.6 kcal/mol
- κ (heterotropic cooperativity) (Efl1 R1086Q; [2]): 0.1
- -TΔs (Efl1 R1086Q; [3]): -2.1 kcal/mol
- Δg (Efl1 R1086Q; [3]): 1.2 kcal/mol
- Δh (Efl1 R1086Q; [3]): 3.3 kcal/mol
- κ (heterotropic cooperativity) (Efl1 R1086Q; [3]): 0.2
- -TΔs (Efl1 R1086Q; [4]): -1.6 kcal/mol
- Δg (Efl1 R1086Q; [4]): -0.6 kcal/mol
- Δh (Efl1 R1086Q; [4]): 1.0 kcal/mol
- κ (heterotropic cooperativity) (Efl1 R1086Q; [4]): 2.7
- -TΔs (Efl1 R1086Q; [5]): -1.1 kcal/mol
- Δg (Efl1 R1086Q; [5]): -0.8 kcal/mol
- Δh (Efl1 R1086Q; [5]): 0.3 kcal/mol
- κ (heterotropic cooperativity) (Efl1 R1086Q; [5]): 3.6
- -TΔs (Efl1 R1086Q; [6]): -1.4 kcal/mol
- Δg (Efl1 R1086Q; [6]): -0.9 kcal/mol
- Δh (Efl1 R1086Q; [6]): 0.5 kcal/mol
- κ (heterotropic cooperativity) (Efl1 R1086Q; [6]): 4.6
- -TΔs (Efl1 R1086Q; [7]): -3.1 kcal/mol
- Δg (Efl1 R1086Q; [7]): 1.06 kcal/mol
- Δh (Efl1 R1086Q; [7]): 4.2 kcal/mol
- κ (heterotropic cooperativity) (Efl1 R1086Q; [7]): 0.2
- -TΔs (Efl1 R1086Q; [8]): -1.2 kcal/mol
- Δg (Efl1 R1086Q; [8]): 1.2 kcal/mol
- Δh (Efl1 R1086Q; [8]): 2.3 kcal/mol
- κ (heterotropic cooperativity) (Efl1 R1086Q; [8]): 0.1
- Δg (Efl1 R1086Q; [9]): 1.3 kcal/mol
- Δh (Efl1 R1086Q; [9]): 1.2 kcal/mol
- κ (heterotropic cooperativity) (Efl1 R1086Q; [9]): 0.1
- Kd (Efl1 R1086Q; +Mg^2+, 25 °C): 24 ± 3 µM
- Kd (Efl1 R1086Q; +Mg^2+, 30 °C): 28 ± 6 µM
- Kd (Efl1 R1086Q; +Mg^2+, 35 °C): 29 ± 8 µM
- Kd (Efl1 R1086Q; −Mg^2+, 25 °C): 3 ± 0.4 µM
- Kd (Efl1 R1086Q; −Mg^2+, 30 °C): 4 ± 0.6 µM
- Kd (Efl1 R1086Q; −Mg^2+, 35 °C): 4 ± 0.6 µM
- -TΔSb (Efl1 R1086Q; +Mg^2+, 25 °C): -3.19 kcal/mol
- ΔGb (Efl1 R1086Q; +Mg^2+, 25 °C): -6.29 kcal/mol
- ΔHb (Efl1 R1086Q; +Mg^2+, 25 °C): -3.1 ± 0.1 kcal/mol
- -TΔSb (Efl1 R1086Q; +Mg^2+, 30 °C): -2.20 kcal/mol
- ΔGb (Efl1 R1086Q; +Mg^2+, 30 °C): -6.30 kcal/mol
- ΔHb (Efl1 R1086Q; +Mg^2+, 30 °C): -4.1 ± 0.6 kcal/mol
- -TΔSb (Efl1 R1086Q; +Mg^2+, 35 °C): -0.59 kcal/mol
- ΔGb (Efl1 R1086Q; +Mg^2+, 35 °C): -6.39 kcal/mol
- ΔHb (Efl1 R1086Q; +Mg^2+, 35 °C): -5.8 ± 0.2 kcal/mol
- ΔCpb (Efl1 R1086Q; +Mg^2+): −270 ± 40 cal mol^−1 K^−1 and −270 cal mol^−1 K^−1
- -TΔSb (Efl1 R1086Q; −Mg^2+, 25 °C): -0.94 kcal/mol
- ΔGb (Efl1 R1086Q; −Mg^2+, 25 °C): -7.54 kcal/mol
- ΔHb (Efl1 R1086Q; −Mg^2+, 25 °C): -6.6 ± 0.2 kcal/mol
- -TΔSb (Efl1 R1086Q; −Mg^2+, 30 °C): 0.22 kcal/mol
- ΔGb (Efl1 R1086Q; −Mg^2+, 30 °C): -7.47 kcal/mol
- ΔHb (Efl1 R1086Q; −Mg^2+, 30 °C): -7.7 ± 0.3 kcal/mol
- -TΔSb (Efl1 R1086Q; −Mg^2+, 35 °C): 1.55 kcal/mol
- ΔGb (Efl1 R1086Q; −Mg^2+, 35 °C): -7.55 kcal/mol
- ΔHb (Efl1 R1086Q; −Mg^2+, 35 °C): -9.1 ± 0.3 kcal/mol
- ΔCpb (Efl1 R1086Q; −Mg^2+): −250 cal mol^−1 K^−1 and −250 ± 17 cal mol^−1 K^−1
- surface buried by the conformational change (Efl1 R1086Q; refers to Table 3, 30 °C): ~ 1000 Å
- Nconfres (number of residues changing conformation, absolute value) (Efl1 R1086Q; −Mg^2+, 30 °C): 21
- ΔCpconf (Efl1 R1086Q; −Mg^2+, 30 °C): −220 cal mol^−1 K^−1
- ΔSb (Efl1 R1086Q; −Mg^2+, 30 °C): −1 cal mol^−1 K^−1
- ΔSconf (Efl1 R1086Q; −Mg^2+, 30 °C): −53 cal mol^−1 K^−1
- ΔSsolv (Efl1 R1086Q; −Mg^2+, 30 °C): 60 cal mol^−1 K^−1
- −ΔASAconf (Efl1 R1086Q; −Mg^2+, 30 °C): 987 Å^2
- -TΔSb (wild-type Efl1•Sdo1; 30 °C): 1.5 kcal/mol
- Kd (wild-type Efl1•Sdo1; 30 °C): 52 µM
- ΔGb (wild-type Efl1•Sdo1; 30 °C): -5.9 kcal/mol
- ΔHb (wild-type Efl1•Sdo1; 30 °C): -7.4 ± 0.0 kcal/mol
- ΔCpb (wild-type Efl1•Sdo1): −640 cal mol^−1 K^−1 and −640 ± 34 cal mol^−1 K^−1
